Measurements published in patent US12678454B2, “Bicarbonate as a potentiator for antimicrobial agents” (priority 2017, dated 2026).
Bridge positions count the residues as written; N and C are the ends. Square brackets hold non-standard residues; d marks the D form. Peptide text beside a SMILES is read from it. * marks the point of attachment. Ileψ(thiazoline)Cys = CC[C@H](C)[C@H](N)C1=N[C@H](C(=O)*)CS1; dOrn = NCCC[C@@H](N)C(=O)O

What was measured:
[1] = test system: S. aureus (Strain Newman); experiment: MIC determination (CLSI protocol) in MHB; format: cell-based, Staphylococcus aureus; conditions: for MIC, S. aureus, MHB−: MHB without sodium bicarbonate
Method: (§1) In the following experiments, bacterial cells were cultured in 96-well microtiter plates in cation-adjusted Mueller-Hinton Broth (MHB) for 18 h at 37° C. The main strains used in this study were E. coli (K-12 BW25113) (placed in stationary incubator) and S. aureus (Strain Newman) (incubated at 250 r.p.m). Knockout strains (ΔtolcC and ΔychM) were used from the Keio knockout collection (Baba, T. et al. Construction of Escherichia coli K-12 in-frame, single-gene knockout mutants: the Keio collection. Mol Syst Biol 2, 2006 0008, doi:10.1038/msb4100050 (2006)). For minimum concentration for inhibition (MIC) determination and checkerboard analyses, Clinical & Laboratory Standards Institute (CLSI) protocol was used. […] DiSC3 loading of S. aureus cells was performed as previously described (Farha, M. A., Verschoor, C. P., Bowdish, D. & Brown, E. D. Collapsing the proton motive force to identify synergistic combinations against Staphylococcus aureus. Chemistry & biology 20, 1168-1178, doi:10.1016/j.chembiol.2013.07.006 (2013)). CCCP concentration of 20 μM was used. pH adjustments were made by addition of HCl or NaOH. INT assay and ATP bioluminescence assays were performed as previously described (Farha, M. A., Verschoor, C. P., Bowdish, D. & Brown, E. D. Collapsing the proton motive force to identify synergistic combinations against Staphylococcus aureus. Chemistry & biology 20, 1168-1178, doi:10.1016/j.chembiol.2013.07.006 (2013)). For chemical-genomic studies, the Keio library was grown overnight in cation-adjusted MHB broth, in 384-well plates. From these, treatment plates (25 mM sodium bicarbonate, or a sterile water control) were inoculated and grown for 15 hours at 37° C., in a stationary incubator. Data was normalized according to Mangat et al (Mangat, C. S., Bharat, A., Gehrke, S. S. & Brown, E. D. Rank ordering plate data facilitates data visualization and normalization in high-throughput screening. J Biomol Screen 19, 1314-1320, doi:10.1177/1087057114534298 (2014)), with gene products and GO terms mined from EcoCyc. The GFP promoter library (Keseler, I. M. et al. EcoCyc: fusing model organism databases with systems biology. Nucleic Acids Res 41, D605-612, doi:10.1093/nar/gks1027 (2013)) was grown for 18 hours at ambient temperature with the same inoculation strategy as with the Keio collection. The analysis pipeline of Zaslaver et al (Zaslaver, A. et al. A comprehensive library of fluorescent transcriptional reporters for Escherichia coli. Nat Methods 3, 623-628, doi:10.1038/nmeth895 (2006)) was used to generate maps of promoter activity, from which lists of promoters with increased or decreased activity were compiled.

E. coli (K-12 BW25113) = format: cell-based, Escherichia coli; set-up: MIC, E. coli, MHB− / MIC, E. coli, MHB+: unit not given here
Method: as §1

Structure (SMILES)	Fold, S. aureus [1]	MIC, S. aureus, MHB− [1]	Fold, E. coli (E. coli (K-12 BW25113))	MIC, E. coli, MHB+ (E. coli (K-12 BW25113))
CC1(C)S[C@@H]2[C@H](NC(=O)[C@H](N)c3ccc(O)cc3)C(=O)N2[C@H]1C(=O)O [Amoxicillin]	−4 fold	0.25 µg/mL	−2 fold	16
CC1(C)S[C@@H]2[C@H](NC(=O)[C@H](N)c3ccccc3)C(=O)N2[C@H]1C(=O)O [Ampicillin]	−8 fold	1 µg/mL	−2 fold	32
CN[C@@H]1[C@@H](O[C@H]2O[C@H](CO)[C@@H](N)[C@H](O)[C@H]2O)OC2C[C@@H](N)[C@@H](O[C@H]3[C@H](O)[C@@H](O)[C@H](N)C[C@@H]3N)OC2[C@@H]1O (some centres unmarked) [Apramycin]	0.5 fold	16 µg/mL	4 fold	8
CC[C@H](C)[C@H](N)C1=N[C@H](C(=O)N[C@@H](CC(C)C)C(=O)N[C@H](CCC(=O)O)C(=O)N[C@H](C(=O)N[C@H]2CCCCNC(=O)[C@H](CC(N)=O)NC(=O)[C@@H](CC(=O)O)NC(=O)[C@H](Cc3cnc[nH]3)NC(=O)[C@@H](Cc3ccccc3)NC(=O)[C@H]([C@@H](C)CC)NC(=O)[C@@H](CCCN)NC2=O)[C@@H](C)CC)CS1 [Bacitracin] ({Ileψ(thiazoline)Cys}-L[dE]IK[dOrn]I[dF]H[dD]N; lactam 4-C)	−2 fold	32 µg/mL	1 fold	>256
N[C@@H]1CCCCN(c2c(F)cc3c(=O)c(C(=O)O)cn(C4CC4)c3c2Cl)C1 [Besifloxacin]	−2 fold	0.125 µg/mL	8 fold	0.0313
CCN1CCN(C(=O)N[C@@H](C(=O)N[C@@H]2C(=O)N3C(C(=O)O)=C(CSc4nnnn4C)CS[C@H]23)c2ccc(O)cc2)C(=O)C1=O [Cefoperazone]	−16 fold	0.25 µg/mL	1 fold	0.125
CO/N=C(\C(=O)N[C@@H]1C(=O)N2C(C(=O)O)=C(CSc3nc(=O)c(=O)[nH]n3C)CS[C@H]12)c1csc(N)n1 [Ceftriaxone]	−4 fold	4 µg/mL	1 fold	0.625
O=C(N[C@H](CO)[C@H](O)c1ccc([N+](=O)[O-])cc1)C(Cl)Cl [Chloramphenicol]	1 fold	8 µg/mL	1 fold	8
Cc1onc(-c2ccccc2Cl)c1C(=O)N[C@@H]1C(=O)N2[C@@H]1SC(C)(C)[C@@H]2C(=O)O [Cloxacillin]	−16 fold	0.031 µg/mL	1 fold	256
CC[C@H]1OC(=O)[C@H](C)[C@@H](O[C@H]2C[C@@](C)(OC)[C@@H](O)[C@H](C)O2)[C@H](C)[C@@H](O[C@@H]2O[C@H](C)C[C@H](N(C)C)[C@H]2O)[C@](C)(O)C[C@@H](C)[C@@H]2N[C@@H](COCCOC)O[C@H]([C@H]2C)[C@]1(C)O [Dirithromycin]	8 fold	4 µg/mL	32 fold	4
C[C@H]1c2cccc(O)c2C(=O)C2=C(O)[C@]3(O)C(=O)C(C(N)=O)=C(O)[C@@H](N(C)C)[C@@H]3[C@@H](O)[C@@H]21 [Doxycycline]	−16 fold	0.125 µg/mL	−4 fold	4
CCn1cc(C(=O)O)c(=O)c2cc(F)c(N3CCNCC3)nc21 [Enoxacin]	−2 fold	1 µg/mL	2 fold	0.125
CC[C@H]1OC(=O)[C@H](C)[C@@H](O[C@H]2C[C@@](C)(OC)[C@@H](O)[C@H](C)O2)[C@H](C)[C@@H](O[C@@H]2O[C@H](C)C[C@H](N(C)C)[C@H]2O)[C@](C)(O)C[C@@H](C)C(=O)[C@H](C)[C@@H](O)[C@]1(C)O [Erythromycin]		32 µg/mL		32
C[C@@H]1O[C@@H]1P(=O)(O)O [Fosfomycin]	−4 fold	16 µg/mL	−4 fold	16
O=CN(O)CCCP(=O)(O)O [Fosmidomycin]	1 fold	> 64 µg/mL	−2 fold	32
NC[C@H]1O[C@H](O[C@H]2[C@H](O)[C@@H](O[C@H]3O[C@H](CO)[C@@H](O)[C@H](N)[C@H]3O)[C@H](N)C[C@@H]2N)[C@H](O)[C@@H](O)[C@@H]1O [Kanamycin]	2 fold	8 µg/mL	4 fold	1
C[C@H]1COc2c(N3CCN(C)CC3)c(F)cc3c(=O)c(C(=O)O)cn1c23 [Levofloxacin]	−2 fold	0.5 µg/mL	1 fold	0.0313
CC(=O)NC[C@H]1CN(c2ccc(N3CCOCC3)c(F)c2)C(=O)O1 [Linezolid]	1 fold	0.625 µg/mL	1 fold	256
COc1c(N2C[C@@H]3CCCN[C@@H]3C2)c(F)cc2c(=O)c(C(=O)O)cn(C3CC3)c12 [Moxifloxacin]		0.125 µg/mL		0.0156
CCn1cc(C(=O)O)c(=O)c2ccc(C)nc21 [Nalidixic acid]	−4 fold	> 8 µg/mL	−4 fold	8
CCn1cc(C(=O)O)c(=O)c2cc(F)c(N3CCNCC3)cc21 [Norfloxacin]	−2 fold	0.5 µg/mL	2 fold	0.0625
CO[C@@H]1[C@@H](OC(N)=O)[C@@H](O)[C@H](Oc2ccc3c(O)c(NC(=O)c4ccc(O)c(CC=C(C)C)c4)c(=O)oc3c2C)OC1(C)C [Novobiocin]	−16 fold	0.031 µg/mL	−8 fold	>256
Cc1onc(-c2ccccc2)c1C(=O)N[C@@H]1C(=O)N2[C@@H]1SC(C)(C)[C@@H]2C(=O)O [Oxacillin]	−16 fold	0.0625 µg/mL	−2 fold	>256
NC[C@@H]1O[C@H](O[C@H]2[C@@H](O)[C@H](O[C@@H]3[C@@H](O)[C@H](N)C[C@H](N)[C@H]3O[C@H]3O[C@H](CO)[C@@H](O)[C@H](O)[C@H]3N)O[C@@H]2CO)[C@H](N)[C@@H](O)[C@@H]1O [Paromomycin]	1 fold	2 µg/mL	2 fold	1
CCN1CCN(C(=O)N[C@@H](C(=O)N[C@@H]2C(=O)N3[C@@H]2SC(C)(C)[C@@H]3C(=O)O)c2ccccc2)C(=O)C1=O [Piperacillin]	−4 fold	0.25 µg/mL	2 fold	1
CO[C@H]1/C=C/O[C@@]2(C)Oc3c(C)c(O)c4c(O)c(c(/C=N/N5CCN(C)CC5)c(O)c4c3C2=O)NC(=O)/C(C)=C\C=C\[C@H](C)[C@H](O)[C@@H](C)[C@@H](O)[C@@H](C)[C@H](OC(C)=O)[C@@H]1C [Rifampicin]	−4 fold	0.0078 µg/mL	−2 fold	64
CN[C@@H]1[C@H](O)[C@H](NC)[C@H]2O[C@@]3(O)C(=O)C[C@@H](C)O[C@H]3O[C@@H]2[C@H]1O [Spectinomycin]	8 fold	64 µg/mL	4 fold	4
